Data reported in PMC8151276, “An Integrated Approach toward NanoBRET Tracers for Analysis of GPCR Ligand Engagement” (Molecules, 2021).

What was measured:
CCKBR = target: T1, CCKBR (Homo sapiens, UniProt P32239); assay: NanoBRET screen HiBiT-CCKBR in HEK293; type: binding; details: CCKBR
T1 construct: purchased Promega (in-house HiBiT-GPCR construct library, NanoBRET)
T1 sequence (P32239 1-447): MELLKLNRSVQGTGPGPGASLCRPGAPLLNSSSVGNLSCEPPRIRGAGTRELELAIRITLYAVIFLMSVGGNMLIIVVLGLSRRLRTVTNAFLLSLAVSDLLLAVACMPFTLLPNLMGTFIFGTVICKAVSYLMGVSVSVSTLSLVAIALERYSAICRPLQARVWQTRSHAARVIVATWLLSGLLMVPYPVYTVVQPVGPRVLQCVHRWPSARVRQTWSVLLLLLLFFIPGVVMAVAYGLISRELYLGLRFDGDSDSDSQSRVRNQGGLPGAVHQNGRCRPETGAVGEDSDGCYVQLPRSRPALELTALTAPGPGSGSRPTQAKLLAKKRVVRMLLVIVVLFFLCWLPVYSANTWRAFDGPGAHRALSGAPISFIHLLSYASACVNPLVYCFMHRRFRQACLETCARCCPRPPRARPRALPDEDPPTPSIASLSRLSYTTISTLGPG
Experimental: (§1) Each tracer candidate was screened across the entire library of HiBiT-GPCR constructs using NanoBRET as the detection modality. As depicted in Figure 4A, the specificity of interactions was evaluated through decrease in BRET due to competitive displacement of a bound tracer by excess parental compound. Each tracer was analyzed for binding to each HiBiT-GPCR fusion in the absence and in the presence of competing parental compound. Briefly, HEK293 cells were transfected with HiBiT-GPCR constructs diluted into promoterless DNA to reduce expression and maximize translocation to the cell surface. Each tracer candidate was then screened at concentrations of 1 μM and 0.1 μM across cells expressing these fusions. Cells were treated for 1.5 h with tracer either alone or in the presence of 20 μM competing parental compound (i.e., control). BRET was measured upon addition of purified LgBiT and subsequent complementation with HiBiT genetically fused to a GPCR. The specificity of interactions was assessed through a decrease in BRET signal due to competitive displacement of the bound tracer. To further gauge the robustness of these interactions, the fold response over the control (i.e., BRETtracer/BRETcontrol) was calculated. We chose a 1.5-fold response, which translates to ≥7-fold signal over noise as the minimal threshold required to score an interaction as positive. […]. Below we highlight the screening results obtained for our exemplary fluorescent tracers based on Clozapine, Amitriptyline and AZD1283.
(§2) HiBiT-GPCR DNA constructs were diluted in 10 mM Tris pH 8 to a final concentration of 0.01 μg/μL, arrayed in 96-well plates and stored at −20 °C. For transfection, HEK293 cells were suspended in Opti-MEM (without phenol red) supplemented with 2% fetal bovine serum (Seradigm) and 100 units/mL penicillin–streptomycin (Gibco) at a final concentration of 220,000 cells/mL and dispensed into white 96-well plates at 90 μL/well. Subsequent transfections and screens were carried using an Agilent Bravo Automated Liquid Handling Platform. First, the 96-well HiBiT DNA arrays were diluted 25-fold in Opti-MEM (without serum or phenol red) to a final concentration of 0.0004 μg/μL and 20 μL of the diluted DNAs were transferred into new 96-well plates. Next, promoterless carrier DNA (1 μg/μL) was diluted 25-fold (0.04 μg/μL) and then dispensed into the diluted arrays at 20 μL/well. Following brief mixing, Viafect transfection reagent (Promega) diluted 16-fold into Opti-MEM was dispensed into the plates at 40 μL/well. After mixing by pipetting, plates were incubated for 10 min on the pipetting station deck. The DNA-transfection reagent complexes were then added to plates containing cells. To facilitate the screen, 10 μL of DNA-transfection reagent complexes were added in duplicates to the top 4 and bottom 4 rows, resulting in two identical 48-well arrays per plate. Plates with transfected cells were incubated for 18–20 h at 37 °C/5% CO2. A screen of each tracer across the entire library using two different concentrations requires duplicate plates of transfected cells. Depending on the number of tracers being screened, transfections can be scaled up using the same ratios. The next day, for each tracer, four 20× screening solutions in tracer dilution buffer (Promega) were prepared: two duplicates at final concentration of 20 μM and two duplicates at a final concentration of 2 μM. A competing unmodified compound was added to one of each duplicate at a final concentration of 400 μM. The four resulting solutions were diluted 4-fold in Opti-MEM without serum or phenol red to generate 5× solutions (5 µM and 0.5 µM tracer +/− 100 μM competing compound). To screen the library, a BioTek MultiFlo FX liquid dispenser was used to dispense 22.5 µL of tracer solution to the top 4 rows and 22.5 µL tracer + competing compound solution to the 4 bottom rows. Plates were briefly mixed on an orbital shaker and incubated for 1.5 h at room temperature. […]

CCR1 = target: T2, CCR1 (Homo sapiens, UniProt P32246); assay: NanoBRET screen HiBiT-CCR1 in HEK293; type: binding; details: CCR1
T2 construct: purchased Promega (in-house HiBiT-GPCR construct library, NanoBRET)
T2 sequence (P32246 1-355): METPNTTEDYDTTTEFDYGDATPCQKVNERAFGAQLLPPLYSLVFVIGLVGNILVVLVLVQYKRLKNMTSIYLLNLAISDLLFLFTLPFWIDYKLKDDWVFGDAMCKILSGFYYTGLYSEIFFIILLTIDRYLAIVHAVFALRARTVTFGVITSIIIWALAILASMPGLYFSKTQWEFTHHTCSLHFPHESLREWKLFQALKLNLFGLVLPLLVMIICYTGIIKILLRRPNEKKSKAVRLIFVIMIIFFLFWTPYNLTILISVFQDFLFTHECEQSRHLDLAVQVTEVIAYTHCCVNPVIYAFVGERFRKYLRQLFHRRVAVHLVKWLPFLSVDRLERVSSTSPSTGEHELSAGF
Experimental: as §1, §2

Row | SMILES | NanoBRET Fold Response (CCKBR; tracer 0.1μM) | NanoBRET Fold Response (CCKBR; tracer 1μM) | NanoBRET Fold Response (CCR1; tracer 0.1μM) | NanoBRET Fold Response (CCR1; tracer 1μM)
1 | Cc1nc2n(c(=O)c1CCN1CCC(c3noc4cc(F)ccc34)CC1)CCCC2OC(=O)NCCOCCOCCOCCOCCNC(=O)CCc1ccc2n1[B-](F)(F)[N+]1=C(c3ccc[nH]3)C=CC1=C2 (stereo not shown) [Risperidone-2-NB590] | 1.01 | 0.81 | 1.00 | 0.99
2 | CC(C)N(CC[C@H](c1ccccc1)c1cc(CCNC(=O)CCOCCOCCOCCOCCNC(=O)CCc2ccc3n2[B-](F)(F)[N+]2=C(c4ccc[nH]4)C=CC2=C3)ccc1O)C(C)C [Tolterodine-2-NB590] | 0.97 | 1.07 | 0.97 | 0.94
3 | CC(C)N(CC[C@H](c1ccccc1)c1cc(CCNC(=O)c2ccc(CNC(=O)CCc3ccc4n3[B-](F)(F)[N+]3=C(c5ccc[nH]5)C=CC3=C4)cc2)ccc1O)C(C)C [Tolterodine-BZ-NB590] | 0.97 | 1.06 | 1.09 | 0.96
4 | CCCn1c(=O)c2[nH]c(-c3ccc(OCC(=O)NCCNC(=O)CCOCCNC(=O)c4ccc(CNC(=O)CCc5ccc6n5[B-](F)(F)[N+]5=C(c7ccc[nH]7)C=CC5=C6)cc4)cc3)nc2n(CCC)c1=O [XAC-3-NB590] | 1.02 | 0.85 | 0.83 | 1.09
